The values that follow come from article PMC5382279, “Glutaredoxin catalysis requires two distinct glutathione interaction sites” (Nature Communications, 2017).

The target in data set [1] is T1, ScGrx7 (Saccharomyces cerevisiae, UniProt P38068, K105A).
T1 construct: gene GRX7; N-terminal MRGS(H)6 tag kept, E. coli XL1-Blue, pQE30/SCGRX7 double stop-codon construct
T1 sequence (P38068 33-203 K105A): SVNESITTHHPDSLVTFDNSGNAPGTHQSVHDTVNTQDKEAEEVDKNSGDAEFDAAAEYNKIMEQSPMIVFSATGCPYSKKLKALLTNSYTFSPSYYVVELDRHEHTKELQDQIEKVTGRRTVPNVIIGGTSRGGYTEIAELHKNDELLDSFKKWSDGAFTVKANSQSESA
The data set can be described thus: coupled NADPH/glutathione reductase assay, […] nm, GSSCys assay. The data set is classed as biochemical. Particulars: varied GSSCys 25-200 uM at fixed GSH 0.05-1.0 mM; 0.1 M Tris/HCl, 1 mM EDTA, pH 8.0, 25 C; ping-pong.

Data set [2] addresses T2, ScGrx7 (Saccharomyces cerevisiae, UniProt P38068, K105E).
T2 construct: gene GRX7; N-terminal MRGS(H)6 tag kept, E. coli XL1-Blue, pQE30/SCGRX7 double stop-codon construct
T2 sequence (P38068 33-203 K105E): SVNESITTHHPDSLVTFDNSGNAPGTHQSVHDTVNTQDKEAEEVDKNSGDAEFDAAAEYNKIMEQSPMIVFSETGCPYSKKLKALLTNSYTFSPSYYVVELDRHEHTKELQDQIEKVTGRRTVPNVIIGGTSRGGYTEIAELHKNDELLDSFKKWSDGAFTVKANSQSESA
The data set is described as above. Particulars: varied GSSCys 25-200 uM at fixed GSH 0.05-1.0 mM; 0.1 M Tris/HCl, 1 mM EDTA, pH 8.0, 25 C; ping-pong. The format is biochemical.

The target of data set [3] is T3, ScGrx7 (Saccharomyces cerevisiae, UniProt P38068).
T3 construct: gene GRX7; N-terminal MRGS(H)6 tag kept, E. coli XL1-Blue, pQE30/SCGRX7 double stop-codon construct
T3 sequence (P38068 33-203): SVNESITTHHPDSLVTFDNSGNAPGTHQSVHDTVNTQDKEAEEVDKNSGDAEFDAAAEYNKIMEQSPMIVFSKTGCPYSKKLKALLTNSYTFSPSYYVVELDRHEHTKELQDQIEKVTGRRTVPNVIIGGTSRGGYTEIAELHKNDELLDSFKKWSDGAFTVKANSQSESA
The description is as above. Particulars: varied GSSCys 25-200 uM at fixed GSH 0.05-1.0 mM; 0.1 M Tris/HCl, 1 mM EDTA, pH 8.0, 25 C; ping-pong. The format is biochemical.

Data set [4] has as its target T4, ScGrx7 (Saccharomyces cerevisiae, UniProt P38068, E170K).
T4 construct: gene GRX7; N-terminal MRGS(H)6 tag kept, E. coli XL1-Blue, pQE30/SCGRX7 double stop-codon construct
T4 sequence (P38068 33-203 E170K): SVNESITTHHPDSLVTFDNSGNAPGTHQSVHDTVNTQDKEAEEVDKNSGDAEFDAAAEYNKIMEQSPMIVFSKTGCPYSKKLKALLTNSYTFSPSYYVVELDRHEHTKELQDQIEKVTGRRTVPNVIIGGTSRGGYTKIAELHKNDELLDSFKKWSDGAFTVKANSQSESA
The data set is described as above. The format is biochemical. As to conditions: varied GSSCys 25-200 uM at fixed GSH 0.05-1.0 mM; 0.1 M Tris/HCl, 1 mM EDTA, pH 8.0, 25 C; ping-pong.

For data set [5], the target named is T5, ScGrx7 (Saccharomyces cerevisiae, UniProt P38068, E170A).
T5 construct: gene GRX7; N-terminal MRGS(H)6 tag kept, E. coli XL1-Blue, pQE30/SCGRX7 double stop-codon construct
T5 sequence (P38068 33-203 E170A): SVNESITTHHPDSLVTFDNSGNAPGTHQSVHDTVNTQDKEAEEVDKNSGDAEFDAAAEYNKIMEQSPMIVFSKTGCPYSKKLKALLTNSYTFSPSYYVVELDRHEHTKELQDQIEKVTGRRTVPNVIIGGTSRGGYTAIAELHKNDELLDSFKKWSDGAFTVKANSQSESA
The description is as above. Particulars: varied GSSCys 25-200 uM at fixed GSH 0.05-1.0 mM; 0.1 M Tris/HCl, 1 mM EDTA, pH 8.0, 25 C; ping-pong. The format is biochemical.

The target in data set [6] is T3, ScGrx7. The data set is described as follows: coupled NADPH/glutathione reductase assay, […] nm, HEDS assay. The format is biochemical. Particulars: varied HEDS 90-920 uM at fixed GSH 0.3-1.5 mM; 0.1 M Tris/HCl, 1 mM EDTA, pH 8.0, 25 C; sequential pattern.
Data set [7] concerns the target T3, ScGrx7. The data set can be described thus: inhibition of HEDS or GSSEtOH assay. Particulars: up to 10 mM inhibitor; weak competitive inhibitor; HEDS or GSSEtOH as disulfide substrate with GSH. The format is biochemical.
Substrate in data set [8]: OCCSSCCO
The data set can be described thus: purified protein, by the assay type. Details: HEDS assay, GR-coupled NADPH consumption at 340 nm, steady-state kinetics. As to conditions: pH 8.0; 25.0 °C.

Substrate in data set [9]: N[C@@H](CCC(=O)N[C@@H](CS)C(=O)NCC(=O)O)C(=O)O
The data set is described as follows: purified protein, by the assay type. Also on record: HEDS assay, GR-coupled NADPH consumption at 340 nm, steady-state kinetics. Particulars: pH 8.0; 25.0 °C.

Substrate in data set [10]: OCCSSCCO
The data set is described as follows: purified protein, by the assay type. Also on record: HEDS oxidoreductase assay, glutathione reductase coupled, NADPH consumption at 340 nm, pH 8.0, 25 °C. Particulars: pH 8.0; 25.0 °C.

Substrate in data set [11]: N[C@@H](CCC(=O)N[C@@H](CS)C(=O)NCC(=O)O)C(=O)O
The data set can be described thus: purified protein, by the assay type. Also on record: HEDS oxidoreductase assay, glutathione reductase coupled, NADPH consumption at 340 nm, pH 8.0, 25 °C. Particulars: pH 8.0; 25.0 °C.

Where “and” joins values, the source holds several entries; their conditions need not be identical. Equal entries are not always repeated. Numbered stars: 1 amine (or outer) side, 2 acyl side, 3 side chain; on linkers, the order of the positions; unused ones are H or OH. Square brackets hold non-standard residues; d marks the D form. Peptide text beside a SMILES is read from it. γGlu = O=C(O)[C@H](CCC(=O)[*:2])N[*:1]; Abu = CC[C@H](N)C(=O)O

Turning to `N[C@@H](CCC(=O)N[C@@H](CSSC[C@H](N)C(=O)O)C(=O)NCC(=O)O)C(=O)O` [GSSCys], the Km app entry in [1] is “all K105X mutants had increased Km ^app(GSSCys) values”; in [2] it was “all K105X mutants had increased Km ^app(GSSCys) values”; in [3], “Selected kcat ^app and Km ^app values of ScGrx7 wild-type enzyme and K105X mutants”; in data set [4], “Km ^app values for GSSCys and GSH were reciprocally doubled and halved, respectively”; in data set [5], “Km ^app values for GSSCys and GSH were reciprocally doubled and halved, respectively”.
Take `OCCSSCCO` [HEDS]: the Km app result in data set [6] was “Selected kcat ^app and Km ^app values of ScGrx7 wild-type enzyme and K105X mutants”.
For `CC[C@H](NC(=O)CC[C@H](N)C(=O)O)C(=O)NCC(=O)O` [ophthalmic acid, L-γ-glutamyl-L-α-aminobutyrylglycine] (γGlu-[Abu]-Gly-OH), the “% reduction of reaction velocity at up to 10 mM” value in [7] is listed as 10–20%.

B1: ScGrx7 (Saccharomyces cerevisiae S288C) (protein)
chain: SVNESITTHHPDSLVTFDNSGNAPGTHQSVHDTVNTQDKEAEEVDKNSGDAEFDAAAEYNKIMEQSPMIVFSKTGCPYSKKLKALLTNSYTFSPSYYVVELDRHEHTKELQDQIEKVTGRRTVPNVIIGGTSRGGYTEIAELHKNDELLDSFKKWSDGAFTVKANSQSESA
notes: N-terminal MRGS(H)6 tag kept, E. coli XL1-Blue, pQE30/SCGRX7 double stop-codon construct
The Km is the substrate concentration at which the rate is half of its maximum. B1: the Km was 2050 ± 200 µM and 1820 ± 300 µM and 3720 ± 1100 µM in [8]; 1210 ± 200 µM and 1230 ± 150 µM and 1120 ± 110 µM in [9]; 2300 ± 700 µM and 1500 ± 200 µM in data set [10]; 1200 ± 100 µM and 2300 ± 500 µM in data set [11].
